What was measured:
SLA-1*04:01 = assay: Peptide-MHC class I complex stability, scintillation proximity assay (SPA); set-up: species or system pig; details: biotinylated recombinant SLA heavy chain, 125I-β2m, excess unlabeled β2m, read every 40 min, number only if t1/2 ≥ 0.5 h, '-' = not stably binding
How it was run: (§1)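 Biotinylated recombinant heavy chains captured on streptavidin scintillation plates with 125I-β2m and peptide; signal read every 40 min under dissociating conditions with excess unlabeled β2m. Signal duration gives complex half-life; ≥ 0.5 h counted as stable binder.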

PBMCs = assay: In vitro peptide stimulation of porcine PBMCs, IFN-γ release assay (ELISA); format: cell-based, pig; set-up: key to T cell response: “x” indicates that a response was found to this given peptide at least once; details: PBMCs of immunized pigs, 2 × 10^5/well, 5 μg/ml peptide, 67.5–70.0 h, IFN-γ ELISA; response = 2-fold increase vs day -2 and at least 25 pg/ml IFN-γ, found at least once; SLA restriction not included
SLA-2*04:01 = assay: Peptide-MHC class I complex stability, scintillation proximity assay (SPA); set-up: species or system pig; details: biotinylated recombinant SLA heavy chain, 125I-β2m, excess unlabeled β2m, read every 40 min, number only if t1/2 ≥ 0.5 h, '-' = not stably binding
How it was run: as §1

SLA-1*07:02 = assay: as above; set-up: species or system pig; details: biotinylated recombinant SLA heavy chain, 125I-β2m, excess unlabeled β2m, read every 40 min, number only if t1/2 ≥ 0.5 h, '-' = not stably binding
How it was run: as §1

SLA-3*04:01 = assay: as above; set-up: species or system pig; details: biotinylated recombinant SLA heavy chain, 125I-β2m, excess unlabeled β2m, read every 40 min, number only if t1/2 ≥ 0.5 h, '-' = not stably binding
How it was run: as §1

Sequence	Binder (t1/2 ≥ 0.5 h): half-life of peptide-SLA-1*04:01 complex (SLA-1*04:01)	Binder (t1/2 ≥ 0.5 h): half-life of peptide-SLA-2*04:01 complex (SLA-2*04:01)	also measured
ALEVFHQIHEY [IDO4, porcine IDO-derived 9-11mer peptide]	- (t1/2 (hours) is listed for each of the stably binding peptides (t1/2 ≥ 0.5 h))		
RGTGGTNVIDF [IDO103, porcine IDO-derived 9-11mer peptide]	- (t1/2 (hours) is listed for each of the stably binding peptides (t1/2 ≥ 0.5 h))		
NMDILFSFP [IDO85, porcine IDO-derived 9-11mer peptide]	0.8 h		T cell response (PBMCs): x
SIDGLQGHKM [IDO115, porcine IDO-derived 9-11mer peptide]	- (t1/2 (hours) is listed for each of the stably binding peptides (t1/2 ≥ 0.5 h))		
SLENIPEKW [RhoC49, porcine RhoC-derived 9-11mer peptide]	- (t1/2 (hours) is listed for each of the stably binding peptides (t1/2 ≥ 0.5 h))	- (t1/2 (hours) is listed for each of the stably binding peptides (t1/2 ≥ 0.5 h))	
ASAIKVIPTLF [IDO8, porcine IDO-derived 9-11mer peptide]	- (t1/2 (hours) is listed for each of the stably binding peptides (t1/2 ≥ 0.5 h))	- (t1/2 (hours) is listed for each of the stably binding peptides (t1/2 ≥ 0.5 h))	
KLFFNVLRIY [IDO53, porcine IDO-derived 9-11mer peptide]			Binder (t1/2 ≥ 0.5 h): half-life of peptide-SLA-1*07:02 complex (SLA-1*07:02): - (t1/2 (hours) is listed for each of the stably binding peptides (t1/2 ≥ 0.5 h)); Binder (t1/2 ≥ 0.5 h): half-life of peptide-SLA-3*04:01 complex (SLA-3*04:01): - (t1/2 (hours) is listed for each of the stably binding peptides (t1/2 ≥ 0.5 h))
KKDPSGPMTY [IDO51, porcine IDO-derived 9-11mer peptide]	- (t1/2 (hours) is listed for each of the stably binding peptides (t1/2 ≥ 0.5 h))		
YADCVLANW [IDO133, porcine IDO-derived 9-11mer peptide]	5.4 h	1.7 h	T cell response (PBMCs): x
YVDPKLFFNV [IDO135, porcine IDO-derived 9-11mer peptide]	- (t1/2 (hours) is listed for each of the stably binding peptides (t1/2 ≥ 0.5 h))		
YVDPKLFFNVL [IDO136, porcine IDO-derived 9-11mer peptide]	- (t1/2 (hours) is listed for each of the stably binding peptides (t1/2 ≥ 0.5 h))		
GSAAQSSIF [IDO33, porcine IDO-derived 9-11mer peptide]	- (t1/2 (hours) is listed for each of the stably binding peptides (t1/2 ≥ 0.5 h))	- (t1/2 (hours) is listed for each of the stably binding peptides (t1/2 ≥ 0.5 h))	
EVFHQIHEY [IDO21, porcine IDO-derived 9-11mer peptide]		23.8 h	T cell response (PBMCs): x; Binder (t1/2 ≥ 0.5 h): half-life of peptide-SLA-1*07:02 complex (SLA-1*07:02): 10.1 h
MQRLAHLVLGY [IDO79, porcine IDO-derived 9-11mer peptide]		- (t1/2 (hours) is listed for each of the stably binding peptides (t1/2 ≥ 0.5 h))	Binder (t1/2 ≥ 0.5 h): half-life of peptide-SLA-1*07:02 complex (SLA-1*07:02): - (t1/2 (hours) is listed for each of the stably binding peptides (t1/2 ≥ 0.5 h)); Binder (t1/2 ≥ 0.5 h): half-life of peptide-SLA-3*04:01 complex (SLA-3*04:01): - (t1/2 (hours) is listed for each of the stably binding peptides (t1/2 ≥ 0.5 h))
MALDWWSPM [IDO75, porcine IDO-derived 9-11mer peptide]			T cell response (PBMCs): x; Binder (t1/2 ≥ 0.5 h): half-life of peptide-SLA-1*07:02 complex (SLA-1*07:02): 0.5 h; Binder (t1/2 ≥ 0.5 h): half-life of peptide-SLA-3*04:01 complex (SLA-3*04:01): - (t1/2 (hours) is listed for each of the stably binding peptides (t1/2 ≥ 0.5 h))
DMANRISAFGY [RhoC8, porcine RhoC-derived 9-11mer peptide]		1.1 h	T cell response (PBMCs): x; Binder (t1/2 ≥ 0.5 h): half-life of peptide-SLA-1*07:02 complex (SLA-1*07:02): - (t1/2 (hours) is listed for each of the stably binding peptides (t1/2 ≥ 0.5 h))
EVDGKQVELAL [RhoC22, porcine RhoC-derived 9-11mer peptide]	0.6 h		
DYDRLRPLSY [RhoC13, porcine RhoC-derived 9-11mer peptide]	- (t1/2 (hours) is listed for each of the stably binding peptides (t1/2 ≥ 0.5 h))		
EVDGKQVEL [RhoC21, porcine RhoC-derived 9-11mer peptide]	- (t1/2 (hours) is listed for each of the stably binding peptides (t1/2 ≥ 0.5 h))		
MVSLRNYHL [IDO83, porcine IDO-derived 9-11mer peptide]	- (t1/2 (hours) is listed for each of the stably binding peptides (t1/2 ≥ 0.5 h))		

Sequence	Binder (t1/2 ≥ 0.5 h): half-life of peptide-SLA-1*04:01 complex (SLA-1*04:01)	Binder (t1/2 ≥ 0.5 h): half-life of peptide-SLA-2*04:01 complex (SLA-2*04:01)	also measured
SLESGPSVREF [IDO116, porcine IDO-derived 9-11mer peptide]	0.8 h		T cell response (PBMCs): x
PLEELPHPY [IDO94, porcine IDO-derived 9-11mer peptide]	- (t1/2 (hours) is listed for each of the stably binding peptides (t1/2 ≥ 0.5 h))		
VQAMVSLRNY [IDO129, porcine IDO-derived 9-11mer peptide]	1.2 h	- (t1/2 (hours) is listed for each of the stably binding peptides (t1/2 ≥ 0.5 h))	T cell response (PBMCs): x
GVPSGSAAGF [IDO34, porcine IDO-derived 9-11mer peptide]	- (t1/2 (hours) is listed for each of the stably binding peptides (t1/2 ≥ 0.5 h))		
SIDSPDSLENI [RhoC47, porcine RhoC-derived 9-11mer peptide]	- (t1/2 (hours) is listed for each of the stably binding peptides (t1/2 ≥ 0.5 h))		
AIAKNLPEL [IDO2, porcine IDO-derived 9-11mer peptide]	- (t1/2 (hours) is listed for each of the stably binding peptides (t1/2 ≥ 0.5 h))		
EDYDRLRPLSY [RhoC14, porcine RhoC-derived 9-11mer peptide]	- (t1/2 (hours) is listed for each of the stably binding peptides (t1/2 ≥ 0.5 h))	- (t1/2 (hours) is listed for each of the stably binding peptides (t1/2 ≥ 0.5 h))	
SKDQFPEVY [RhoC48, porcine RhoC-derived 9-11mer peptide]	- (t1/2 (hours) is listed for each of the stably binding peptides (t1/2 ≥ 0.5 h))	- (t1/2 (hours) is listed for each of the stably binding peptides (t1/2 ≥ 0.5 h))	
SAAQSSIFQCF [IDO122, porcine IDO-derived 9-11mer peptide]	30.2 h	- (t1/2 (hours) is listed for each of the stably binding peptides (t1/2 ≥ 0.5 h))	T cell response (PBMCs): x
TSSLHKALEVF [IDO123, porcine IDO-derived 9-11mer peptide]	- (t1/2 (hours) is listed for each of the stably binding peptides (t1/2 ≥ 0.5 h))	- (t1/2 (hours) is listed for each of the stably binding peptides (t1/2 ≥ 0.5 h))	
SLENIPEKWTP [RhoC50, porcine RhoC-derived 9-11mer peptide]	- (t1/2 (hours) is listed for each of the stably binding peptides (t1/2 ≥ 0.5 h))		
RDMANRISAF [RhoC42, porcine RhoC-derived 9-11mer peptide]	- (t1/2 (hours) is listed for each of the stably binding peptides (t1/2 ≥ 0.5 h))	- (t1/2 (hours) is listed for each of the stably binding peptides (t1/2 ≥ 0.5 h))	Binder (t1/2 ≥ 0.5 h): half-life of peptide-SLA-3*04:01 complex (SLA-3*04:01): - (t1/2 (hours) is listed for each of the stably binding peptides (t1/2 ≥ 0.5 h))
RISAFGYLE [RhoC43, porcine RhoC-derived 9-11mer peptide]	- (t1/2 (hours) is listed for each of the stably binding peptides (t1/2 ≥ 0.5 h))		
LWDTAGQEDY [RhoC38, porcine RhoC-derived 9-11mer peptide]	- (t1/2 (hours) is listed for each of the stably binding peptides (t1/2 ≥ 0.5 h))		
SPMDNSWKIF [IDO120, porcine IDO-derived 9-11mer peptide]			T cell response (PBMCs): x; Binder (t1/2 ≥ 0.5 h): half-life of peptide-SLA-1*07:02 complex (SLA-1*07:02): 2.6 h
KGDALLQETY [IDO48, porcine IDO-derived 9-11mer peptide]	0.7 h	- (t1/2 (hours) is listed for each of the stably binding peptides (t1/2 ≥ 0.5 h))	T cell response (PBMCs): x
LLDITSSLH [IDO67, porcine IDO-derived 9-11mer peptide]	0.7 h		T cell response (PBMCs): x
HIDEDLGFAL [IDO35, porcine IDO-derived 9-11mer peptide]	- (t1/2 (hours) is listed for each of the stably binding peptides (t1/2 ≥ 0.5 h))		
DTDVILMCF [RhoC10, porcine RhoC-derived 9-11mer peptide]	1.3 h		
PMDNSWKIF [IDO96, porcine IDO-derived 9-11mer peptide]	0.7 h		

Source: publication PMC4584933, “Establishing the pig as a large animal model for vaccine development against human cancer” (Frontiers in Genetics, 2015)
